Measurements from patent publication US12371454B2, “Cyclic peptide compound having Kras inhibitory action” (priority 2019, dated 2025).
Positions of bridges follow the written chain, without caps; N, C: chain ends. Non-standard residues stand in square brackets, D forms with d. Residues, ends and D or L forms follow the SMILES beside them. *: point of attachment. hPhe(3,5-F2-4-CF3) = N[C@@H](CCc1cc(F)c(C(F)(F)F)c(F)c1)C(=O)O; hPhe(3-Cl-4-CF3) = N[C@@H](CCc1ccc(C(F)(F)F)c(Cl)c1)C(=O)O; hPhe(3-F,4-CF3) = N[C@@H](CCc1ccc(C(F)(F)F)c(F)c1)C(=O)O; NMePhe(4-CF3) = CN[C@@H](Cc1ccc(C(F)(F)F)cc1)C(=O)O; NMePhe(3,4-F2) = CN[C@@H](Cc1ccc(F)c(F)c1)C(=O)O; Pro(cis-4-Ph) = O=C(O)[C@@H]1C[C@H](c2ccccc2)CN1; NMePhe(4-Me) = CN[C@@H](Cc1ccc(C)cc1)C(=O)O; NMePhe(4-I) = CN[C@@H](Cc1ccc(I)cc1)C(=O)O; NMeCha = CN[C@@H](CC1CCCCC1)C(=O)O; NMeGly(cPr) = CN[C@H](C(=O)O)C1CC1; Azetidine(3,3-F2) = FC1(F)CN(*)C1; NMeChg = CN[C@H](C(=O)O)C1CCCCC1; NMeI = CC[C@H](C)[C@H](NC)C(=O)O; dNMeF = CN[C@H](Cc1ccccc1)C(=O)O; Cha = N[C@@H](CC1CCCCC1)C(=O)O; NMeD = CN[C@@H](CC(=O)O)C(=O)O; NMeL = CN[C@@H](CC(C)C)C(=O)O; NMeV = CN[C@H](C(=O)O)C(C)C; d(β3hA) = C[C@@H](N)CC(=O)O; NMeA = CN[C@@H](C)C(=O)O; Piperidide = C1CCN(*)CC1; Ac5c = NC1(C(=O)O)CCCC1; Aze = O=C(O)[C@@H]1CCN1; Sar = CNCC(=O)O

The molecules below were run against T1, Kras and SOS1 (biotin-tagged human Kras loaded with GDP, His-tagged human SOS1) (Homo sapiens, UniProt P01116, G12D) (assay: Protein-protein interaction inhibition between Kras and SOS1 (KrasGl2D-SOS PPI) using AlphaScreen). Conditions: AlphaScreen; biotin-tagged human Kras loaded with GDP, His-tagged human SOS1; read-out: KRAS G12D-SOS PPI IC50.
T1 construct: made in house; host or cells: E. coli (stated for Kras only)
T1 sequence (P01116 1-188 isoform P01116-2 G12D): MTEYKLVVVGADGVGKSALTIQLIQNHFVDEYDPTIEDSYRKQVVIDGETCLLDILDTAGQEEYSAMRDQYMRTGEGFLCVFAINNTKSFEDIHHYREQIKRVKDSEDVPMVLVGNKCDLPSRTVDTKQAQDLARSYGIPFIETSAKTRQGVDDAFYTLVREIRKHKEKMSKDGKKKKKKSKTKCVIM
Type: binding
Outline: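 Binding between SOS1 and Kras is detected as bead-proximity luminescence: illuminate Ni-conjugated donors (680 nm), collect 520-620 nm emission from streptavidin-conjugated acceptors; Kras carries biotin and GDP loaded after purification, SOS1 carries a His tag.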
Work on `CC[C@H](C)[C@@H]1NC(=O)[C@H](C)N(C)C(=O)C[C@@H](C(=O)N(C)C)N(C)C(=O)[C@H]([C@@H](C)CC)N(C)C(=O)C2(CCCC2)NC(=O)[C@H](Cc2ccc(F)c(F)c2)N(C)C(=O)[C@H](CCc2ccc(C(F)(F)F)c(Cl)c2)NC(=O)CN(C)C(=O)[C@H](Cc2ccc(C)cc2)N(C)C(=O)[C@@H]2CCN2C(=O)[C@H](C)N(C)C1=O` [Compound 1878] ([NMeA]I[NMeA][Aze][NMePhe(4-Me)][Sar][hPhe(3-Cl-4-CF3)][NMePhe(3,4-F2)][Ac5c][NMeI][NMeD]-NMe2; lactam N-11) yielded an IC50 of 8.8 nM.
`CC[C@H](C)[C@@H]1NC(=O)[C@H](C)N(C)C(=O)C[C@@H](C(=O)N2CCCCC2)N(C)C(=O)[C@H]([C@@H](C)CC)N(C)C(=O)C2(CCCC2)NC(=O)[C@@H](Cc2ccccc2)N(C)C(=O)[C@H](CCc2cc(F)c(C(F)(F)F)c(F)c2)NC(=O)CN(C)C(=O)[C@H](Cc2ccc(C(F)(F)F)cc2)N(C)C(=O)[C@@H]2CCN2C(=O)[C@H](C)N(C)C1=O` [Compound 1992] ([NMeA]I[NMeA][Aze][NMePhe(4-CF3)][Sar][hPhe(3,5-F2-4-CF3)][dNMeF][Ac5c][NMeI][NMeD]-Piperidide; lactam N-11) showed an IC50 of 280 nM.
`CC[C@H](C)[C@@H]1NC(=O)[C@H](CC(C)C)N(C)C(=O)C[C@@H](C(=O)N2CCCCC2)N(C)C(=O)[C@H](C2CCCCC2)N(C)C(=O)C2(CCCC2)NC(=O)[C@@H]2CCCN2C(=O)[C@H](CCc2ccc(C(F)(F)F)c(Cl)c2)NC(=O)CN(C)C(=O)[C@H](C2CC2)N(C)C(=O)CN(C)C(=O)CN(C)C1=O` [Compound 1666] ([NMeL]I[Sar][Sar][NMeGly(cPr)][Sar][hPhe(3-Cl-4-CF3)]P[Ac5c][NMeChg][NMeD]-Piperidide; lactam N-11) showed an IC50 of 1.1 nM.
With `CC[C@H](C)[C@@H]1NC(=O)[C@H](C)N(C)C(=O)C[C@@H](C(=O)N2CCCCC2)N(C)C(=O)[C@H](C(C)C)N(C)C(=O)[C@H](COC)NC(=O)[C@H](CC(=O)N2CC(F)(F)C2)N(C)C(=O)[C@H](CCc2ccc(C(F)(F)F)c(Cl)c2)NC(=O)CN(C)C(=O)[C@H](CC2CCCCC2)N(C)C(=O)CN(C)C(=O)CN(C)C1=O` [Compound 793] ([NMeA]I[Sar][Sar][NMeCha][Sar][hPhe(3-Cl-4-CF3)][NMeD](Azetidine(3,3-F2))S(Me)[NMeV][NMeD]-Piperidide; lactam N-11) the IC50 was 24 nM.
In the case of `CC[C@H](C)[C@@H]1NC(=O)[C@H](CC(C)C)N(C)C(=O)C[C@@H](C(=O)N2CCCCC2)N(C)C(=O)[C@H](C2CCCCC2)N(C)C(=O)C2(CCCC2)NC(=O)[C@@H]2C[C@H](c3ccccc3)CN2C(=O)[C@H](CCc2ccc(C(F)(F)F)c(Cl)c2)NC(=O)CN(C)C(=O)[C@H](CC2CCCCC2)N(C)C(=O)[C@@H]2CCN2C(=O)[C@H](C)N(C)C1=O` [Compound 1053] ([NMeL]I[NMeA][Aze][NMeCha][Sar][hPhe(3-Cl-4-CF3)][Pro(cis-4-Ph)][Ac5c][NMeChg][NMeD]-Piperidide; lactam N-11), the IC50 is reported as 6.7 nM.
Work on `CC[C@H](C)[C@@H]1NC(=O)[C@H](CC(C)C)N(C)C(=O)C[C@@H](C)NC(=O)[C@H](CC(C)C)N(C)C(=O)C2(CCCC2)NC(=O)[C@@H]2CCN2C(=O)[C@H](CCc2ccc(C(F)(F)F)c(F)c2)NC(=O)CN(C)C(=O)[C@H](CC2CCCCC2)N(C)C(=O)CN(C)C(=O)CN(C)C1=O` [Compound 1545] (cyclo([Ac5c][NMeL][d(β3hA)][NMeL]I[Sar][Sar][NMeCha][Sar][hPhe(3-F,4-CF3)][Aze])) yielded an IC50 of 42 nM.
`CC(C)C[C@H]1C(=O)N[C@@H](CC2CCCCC2)C(=O)N(C)CC(=O)N(C)CC(=O)N(C)[C@@H](CC2CCCCC2)C(=O)N(C)CC(=O)N[C@@H](CCc2ccc(C(F)(F)F)c(Cl)c2)C(=O)N2CCC[C@H]2C(=O)NC2(CCCC2)C(=O)N(C)[C@@H](C(C)C)C(=O)N(C)[C@H](C(=O)N2CCCCC2)CC(=O)N1C` [Compound 986] ([NMeL][Cha][Sar][Sar][NMeCha][Sar][hPhe(3-Cl-4-CF3)]P[Ac5c][NMeV][NMeD]-Piperidide; lactam N-11) was tested, and the IC50 was 25 nM.
`CC[C@H](C)[C@@H]1NC(=O)[C@H](C)N(C)C(=O)C[C@@H](C(=O)N(C)C)N(C)C(=O)[C@H]([C@@H](C)CC)N(C)C(=O)C2(CCCC2)NC(=O)[C@H](Cc2ccc(I)cc2)N(C)C(=O)[C@H](CCc2ccc(C(F)(F)F)c(Cl)c2)NC(=O)CN(C)C(=O)[C@H](Cc2ccc(C)cc2)N(C)C(=O)[C@@H]2CCN2C(=O)[C@H](C)N(C)C1=O` [Compound 1953] ([NMeA]I[NMeA][Aze][NMePhe(4-Me)][Sar][hPhe(3-Cl-4-CF3)][NMePhe(4-I)][Ac5c][NMeI][NMeD]-NMe2; lactam N-11) was tested, and the IC50 was 51 nM.
Work on `CC[C@H](C)[C@@H]1NC(=O)[C@H](CC(C)C)N(C)C(=O)C[C@@H](C)NC(=O)[C@H](C(C)C)N(C)C(=O)C2(CCCC2)NC(=O)[C@@H]2CCCN2C(=O)[C@H](CCc2ccc(C(F)(F)F)c(Cl)c2)NC(=O)[C@H]2CCCN2C(=O)[C@H](CC2CCCCC2)N(C)C(=O)CN(C)C(=O)CN(C)C1=O` [Compound 76] (cyclo([Ac5c][NMeV][d(β3hA)][NMeL]I[Sar][Sar][NMeCha][dP][hPhe(3-Cl-4-CF3)]P)) yielded an IC50 of 190 nM.
